Reference: patent publication US20220249441A1, “Homodimeric Tobramycin Adjuvant Repurposes Novobiocin as an Effective Antibacterial Agent Against Gram-Negative Bacteria” (priority 2019, published 2022)
≈ marks a conversion by molar mass, not a printed value. Each block holds one compound with its values, some of them ahead of it.

Legend:
[1] = tested on: A. baumannii ATCC 17978 and resistant mutants; test: microbe, parasite or virus in culture; assay type: cell-based, Acinetobacter baumannii; details: Acinetobacter baumannii
Experimental: (§1) Antimicrobial Susceptibility Assay. The in vitro antimicrobial activity of all compounds/antibiotics against a panel of bacteria was evaluated by microbroth dilution method in accordance with the Clinical and Laboratory Standards Institute (CLSI) guidelines (using ATCC strains as quality control strains) (54). Overnight grown bacterial cultures were diluted in saline to achieve a 0.5 McFarland turbidity, followed by 1:50 dilution in Mueller-Hinton broth (MHB) for inoculation to a final concentration of approximately 5×10^5 CFU/mL. […] The lowest concentration that prevented the visible growth of bacteria was defined as the MIC for each antimicrobial agent. The broth with or without bacterial cells was used as positive or negative control, respectively.
Development of Resistance Study. […] Tobramycin and colistin were included as controls. At 24-hour intervals, the cultures were assessed for growth. […] This serial passaging was repeated for 8 days.

P. aeruginosa = test: Checkerboard assay (antibiotic + adjuvant combination MIC); assay type: cell-based, Pseudomonas aeruginosa
Experimental: as §1
Checkerboard Assay. Combination studies with different antibiotics were performed in 96-well plates as previously described (19). Briefly, the antibiotic of interest was serially diluted in MHB along the abscissa while the adjuvant (tobramycin homodimer) was serially diluted in MHB along the ordinate. This creates a 10×7 matrices wherein each well consists of a combination of different antibiotic and adjuvant concentrations. Overnight grown bacterial cultures were diluted in saline to achieve a 0.5 McFarland turbidity, followed by 1:50 dilution in Mueller-Hinton broth (MHB) for inoculation to a final concentration of approximately 5×10^5 CFU/mL. […] MIC was recorded as wells with the lowest concentration of drugs with no bacterial growth. The fractional inhibitory concentration (FIC) for each antibiotic was calculated by dividing the MIC of the antibiotic in the presence of adjuvant by the MIC of the antibiotic alone. Similarly, the FIC of adjuvant was calculated by dividing the MIC of the adjuvant in the presence of antibiotic by the MIC of the adjuvant alone. FIC index is the sum of both FICs. FIC indices of ≤0.5 were deemed synergistic; >0.5-4, no interaction; and >4, antagonistic.

[2] = tested on: P. aeruginosa PAO1 and efflux deficient mutants, MDR/XDR isolates; test: microbe, parasite or virus in culture; assay type: cell-based, Pseudomonas aeruginosa
Experimental: Antimicrobial Susceptibility Assay. The in vitro antimicrobial activity of all compounds/antibiotics against a panel of bacteria was evaluated by microbroth dilution method in accordance with the Clinical and Laboratory Standards Institute (CLSI) guidelines (using ATCC strains as quality control strains) (54). […] The broth with or without bacterial cells was used as positive or negative control, respectively.

[3] = P. aeruginosa PAO1, compound at 8 μM
[4] = PA 262-101856, compound at 8 μM
[5] = PA 264-104354, compound at 8 μM
[6] = PA O200 (efflux-deficient), compound at 8 μM
[7] = PA O750 (efflux-deficient), compound at 8 μM

Structure (SMILES): CO[C@H]1/C=C/O[C@@]2(C)Oc3c(C)c(O)c4c(O)c(c(/C=N/N5CCN(C)CC5)c(O)c4c3C2=O)NC(=O)/C(C)=C\C=C\[C@H](C)[C@H](O)[C@@H](C)[C@@H](O)[C@@H](C)[C@H](OC(C)=O)[C@@H]1C [Rifampicin]
MIC ([1]; ATCC17978, 18 h, Mutant C (seven serial passages, sub-MICs novobiocin + 7.1 μM compound 1)): 2 µg/mL
MIC ([1]; ATCC17978, Mutant A (seven serial passages, sub-MICs novobiocin)): 2 µg/mL (≈ 2.43 µM)
MIC ([1]; ATCC17978, Mutant B (seven serial passages, sub-MICs colistin)): < 0.031 µg/mL
MIC ([1]; ATCC17978, Wild-type A. baumannii ATCC 17978): 2 µg/mL (≈ 2.43 µM)

Structure (SMILES): NC[C@H]1O[C@H](O[C@H]2[C@H](OCCCCc3cn(CCCCO[C@@H]4[C@@H](O[C@H]5O[C@H](CO)[C@@H](O)[C@H](N)[C@H]5O)[C@H](N)C[C@H](N)[C@H]4O[C@H]4O[C@H](CN)[C@@H](O)C[C@H]4N)nn3)[C@@H](O[C@H]3O[C@H](CO)[C@@H](O)[C@H](N)[C@H]3O)[C@H](N)C[C@@H]2N)[C@H](N)C[C@@H]1O.O=C(O)C(F)(F)F.O=C(O)C(F)(F)F.O=C(O)C(F)(F)F.O=C(O)C(F)(F)F.O=C(O)C(F)(F)F.O=C(O)C(F)(F)F.O=C(O)C(F)(F)F.O=C(O)C(F)(F)F.O=C(O)C(F)(F)F.O=C(O)C(F)(F)F [Compound 23, Tobramycin homodimer]
MIC of Aztreonam + compound (P. aeruginosa; [3]): 0.25 µg/mL
MIC of Ceftazidime + compound (P. aeruginosa; [3]): 0.25 µg/mL
MIC of Imipenem + compound (P. aeruginosa; [3]): 1 µg/mL
MIC of Piperacillin + compound (P. aeruginosa; [3]): 0.5 µg/mL
MIC of ATM in the presence of compound (P. aeruginosa; PA 259-96918, compound at 8 μM): 8 µg/mL
MIC of CAZ in the presence of compound (P. aeruginosa; PA 259-96918, compound at 8 μM): 128 µg/mL
MIC of IPM in the presence of compound (P. aeruginosa; PA 259-96918, compound at 8 μM): 32 µg/mL
MIC of ATM in the presence of compound (P. aeruginosa; PA 260-97103, compound at 8 μM): 16 µg/mL
MIC of CAZ in the presence of compound (P. aeruginosa; PA 260-97103, compound at 8 μM): 8 µg/mL
MIC of IPM in the presence of compound (P. aeruginosa; PA 260-97103, compound at 8 μM): 16 µg/mL
MIC of ATM in the presence of compound (P. aeruginosa; [4]): 8 µg/mL
MIC of CAZ in the presence of compound (P. aeruginosa; [4]): 2 µg/mL
MIC of IPM in the presence of compound (P. aeruginosa; [4]): 2 µg/mL
MIC of ATM in the presence of compound (P. aeruginosa; [5]): 8 µg/mL
MIC of CAZ in the presence of compound (P. aeruginosa; [5]): 32 µg/mL
MIC of IPM in the presence of compound (P. aeruginosa; [5]): 4 µg/mL
MIC of ATM in the presence of compound (P. aeruginosa; PA 86052, compound at 8 μM): 8 µg/mL
MIC of CAZ in the presence of compound (P. aeruginosa; PA 86052, compound at 8 μM): 64 µg/mL
MIC of IPM in the presence of compound (P. aeruginosa; PA 86052, compound at 8 μM): 16 µg/mL
MIC of ATM in the presence of compound (P. aeruginosa; PA 88949, compound at 8 μM): 32 µg/mL
MIC of CAZ in the presence of compound (P. aeruginosa; PA 88949, compound at 8 μM): 16 µg/mL
MIC of IPM in the presence of compound (P. aeruginosa; PA 88949, compound at 8 μM): 4 µg/mL
MIC of ATM in the presence of compound (P. aeruginosa; PA 91433, compound at 8 μM): 4 µg/mL
MIC of CAZ in the presence of compound (P. aeruginosa; PA 91433, compound at 8 μM): 1 µg/mL
MIC of IPM in the presence of compound (P. aeruginosa; PA 91433, compound at 8 μM): 4 µg/mL
MIC of ATM in the presence of compound (P. aeruginosa; PA 100036, compound at 8 μM): 2 µg/mL
MIC of CAZ in the presence of compound (P. aeruginosa; PA 100036, compound at 8 μM): 2 µg/mL
MIC of IPM in the presence of compound (P. aeruginosa; PA 100036, compound at 8 μM): 4 µg/mL
MIC of ATM in the presence of compound (P. aeruginosa; PA 101243, compound at 8 μM): 16 µg/mL
MIC of CAZ in the presence of compound (P. aeruginosa; PA 101243, compound at 8 μM): 64 µg/mL
MIC of IPM in the presence of compound (P. aeruginosa; PA 101243, compound at 8 μM): 8 µg/mL
MIC of ATM in the presence of compound (P. aeruginosa; PA 101885, compound at 8 μM): 4 µg/mL
MIC of CAZ in the presence of compound (P. aeruginosa; PA 101885, compound at 8 μM): 2 µg/mL
MIC of IPM in the presence of compound (P. aeruginosa; PA 101885, compound at 8 μM): 4 µg/mL
MIC of ATM in the presence of compound (P. aeruginosa; PA 107092, compound at 8 μM): 16 µg/mL
MIC of CAZ in the presence of compound (P. aeruginosa; PA 107092, compound at 8 μM): 32 µg/mL
MIC of IPM in the presence of compound (P. aeruginosa; PA 107092, compound at 8 μM): 16 µg/mL
MIC of ATM in the presence of compound (P. aeruginosa; PA 108590, compound at 8 μM): 8 µg/mL
MIC of CAZ in the presence of compound (P. aeruginosa; PA 108590, compound at 8 μM): 8 µg/mL
MIC of IPM in the presence of compound (P. aeruginosa; PA 108590, compound at 8 μM): 4 µg/mL
MIC of ATM in the presence of compound (P. aeruginosa; PA 109084, compound at 8 μM): 8 µg/mL
MIC of CAZ in the presence of compound (P. aeruginosa; PA 109084, compound at 8 μM): 32 µg/mL
MIC of IPM in the presence of compound (P. aeruginosa; PA 109084, compound at 8 μM): 8 µg/mL
MIC of ATM in the presence of compound (P. aeruginosa; PA 114228, compound at 8 μM): 4 µg/mL
MIC of CAZ in the presence of compound (P. aeruginosa; PA 114228, compound at 8 μM): 1 µg/mL
MIC of IPM in the presence of compound (P. aeruginosa; PA 114228, compound at 8 μM): 0.5 µg/mL
MIC of ATM in the presence of compound (P. aeruginosa; [6]): 0.03 µg/mL
MIC of CAZ in the presence of compound (P. aeruginosa; [6]): 0.13 µg/mL
MIC of IPM in the presence of compound (P. aeruginosa; [6]): 1 µg/mL
MIC of ATM in the presence of compound (P. aeruginosa; [7]): 0.06 µg/mL
MIC of CAZ in the presence of compound (P. aeruginosa; [7]): 0.06 µg/mL
MIC of IPM in the presence of compound (P. aeruginosa; [7]): 1 µg/mL
MIC of ATM in the presence of compound (P. aeruginosa; PAO1, compound at 8 μM): 0.25 µg/mL
MIC of CAZ in the presence of compound (P. aeruginosa; PAO1, compound at 8 μM): 0.25 µg/mL
MIC of IPM in the presence of compound (P. aeruginosa; PAO1, compound at 8 μM): 1 µg/mL
resistant isolates in which CLSI breakpoint was attained for aztreonam (P. aeruginosa; compound at 8 μM): eleven out of thirteen
resistant isolates in which CLSI breakpoint was attained for ceftazidime (P. aeruginosa; compound at 8 μM): four out of eleven
resistant isolates in which CLSI breakpoint was attained for imipenem (P. aeruginosa; compound at 8 μM): five out of seventeen
MIC ([2]; PAO1 (wild-type)): >128 µg/mL
MIC ([2]; PAO200 (first column so headed)): >128 µg/mL
MIC ([2]; PAO200 (second column so headed)): >128 µg/mL

Structure (SMILES): [N-]=[N+]=NCCCCO[C@@H]1[C@@H](O[C@H]2O[C@H](CO)[C@@H](O)[C@H](N)[C@H]2O)[C@H](N)C[C@H](N)[C@H]1O[C@H]1O[C@H](CN)[C@@H](O)C[C@H]1N [Compound 5, 5-O-(4-Azidobutyl)-Tobramycin]
potentiation of novobiocin (P. aeruginosa; P. aeruginosa PAO1): did not potentiate

MIC Alone (P. aeruginosa; P. aeruginosa PAO1, β-lactam antibiotic alone): 4 µg/mL
MIC of ATM alone (P. aeruginosa; PA 259-96918): 32 µg/mL
MIC of ATM alone (P. aeruginosa; PA 260-97103): 64 µg/mL
MIC of ATM alone (P. aeruginosa; PA 262-101856): 32 µg/mL
MIC of ATM alone (P. aeruginosa; PA 264-104354): 32 µg/mL
MIC of ATM alone (P. aeruginosa; PA 86052): 64 µg/mL
MIC of ATM alone (P. aeruginosa; PA 88949): 32 µg/mL
MIC of ATM alone (P. aeruginosa; PA 91433): 16 µg/mL
MIC of ATM alone (P. aeruginosa; PA 100036): 16 µg/mL
MIC of ATM alone (P. aeruginosa; PA 101243): 32 µg/mL
MIC of ATM alone (P. aeruginosa; PA 101885): 16 µg/mL
MIC of ATM alone (P. aeruginosa; PA 107092): 64 µg/mL
MIC of ATM alone (P. aeruginosa; PA 108590): 32 µg/mL
MIC of ATM alone (P. aeruginosa; PA 109084): 64 µg/mL
MIC of ATM alone (P. aeruginosa; PA 114228): 32 µg/mL
MIC of ATM alone (P. aeruginosa; PAO1): 4 µg/mL
Structure (SMILES): C[C@H]1[C@H](NC(=O)/C(=N\OC(C)(C)C(=O)O)c2csc(N)n2)C(=O)N1S(=O)(=O)O [Aztreonam, reference compound]

Structure (SMILES): CC(C)(C)OC(=O)NC[C@H]1O[C@H](O[C@H]2[C@H](OCCCCc3cn(CCCCO[C@@H]4[C@@H](O[C@H]5O[C@H](CO)[C@@H](O)[C@H](NC(=O)OC(C)(C)C)[C@H]5O)[C@H](NC(=O)OC(C)(C)C)C[C@H](NC(=O)OC(C)(C)C)[C@H]4O[C@H]4O[C@H](CNC(=O)OC(C)(C)C)[C@@H](O)C[C@H]4NC(=O)OC(C)(C)C)nn3)[C@@H](O[C@H]3O[C@H](CO)[C@@H](O)[C@H](NC(=O)OC(C)(C)C)[C@H]3O)[C@H](NC(=O)OC(C)(C)C)C[C@@H]2NC(=O)OC(C)(C)C)[C@H](NC(=O)OC(C)(C)C)C[C@@H]1O [Compound 12a]
potentiation of novobiocin (P. aeruginosa; P. aeruginosa PAO1): did not potentiate
